Laboratory results as given in US8148421B2, “Phenylacetic acid derivative” (Fuji Yakuhin Co., Ltd., priority 2006, dated 2012).

System: PGE2 production in A549 cells
Assay: Suppressing action against PGE2 production in human cultured cells (A549, IL-1β-induced cyclooxygenase 2, arachidonic acid added)
Format: cell-based
Conditions: 10 μM test substance, PGE2 in medium by EIA, duplicate
Protocol: In Vitro Evaluation Method (Suppressing Action Against PGE2 Production in Human Cultured Cells)
A549 cells were inoculated on a 24-well plate (10^5 cells/ml/well), and cultured for 1 day in the Ham's F-12 medium containing 10% fetal bovine serum (FBS). The medium was removed, and the cells were washed with Dulbecco's phosphate buffered saline (PBS), and then cultured for 3 days in the Ham's F-12 medium containing 1 ng/ml of a recombinant human IL-1β and FBS to induce cyclooxygenase 2. After the medium was removed, and the cells were washed with PBS, 0.99 ml of the Ham's F-12 mediums containing a test substance (dissolved in dimethyl sulfoxide at a final concentration of 1% and added) and […] L-glutathione reduced was added to the cells, and the cells were incubated at 37° C. for 30 minutes in a 5% CO2 incubator. To the culture was added 10 μl of a 0.5 mg/ml solution of arachidonic acid in ethanol (final concentration: 5 μg/ml), and the reaction was performed by incubating the culture at 37° C. and 50 rpm for 30 minutes. After completion of the reaction, the medium was immediately collected, and the PGE2 concentration in the medium was measured by using Prostaglandin E2 Express EIA Kit (Cayman Chemical). Dimethyl sulfoxide not containing the test substance was added to a blank and a control, and ethanol not containing arachidonic acid was added to the blank to perform the reaction. The experiment was performed in duplicate. The suppression rate of the test substance based on the control was calculated by using the following equation. Suppression rate (100%)=100×[1−(PGE2 concentration in medium containing test substance−PGE2 concentration in medium of blank)/(PGE2 concentration in medium of control−PGE2 concentration in medium of blank)]

In order of falling “PGE2 production suppression rate at 10 μM, Suppression rate (%)” value:
1. CC(C(=O)O)c1ccc(CC2CCCC2O)cc1 (centres unmarked) [LXP-2a, reference compound]  92.0%
2. CC(C(=O)O)c1ccc(CC2SCCC2O)cc1 (single isomer, unassigned) [Example 27-B, 2-[4-(3-Hydroxythiolan-2-ylmethyl)phenyl]propionic Acid]  76.3%
3. CC(C(=O)O)c1ccc(CC2SCCC2O)cc1 (single isomer, unassigned) [Example 27-A, 2-[4-(3-Hydroxythiolan-2-ylmethyl)phenyl]propionic Acid]  40.0%

Same assay, conditions: Homo sapiens, A549, 0.5 h, 10 μM test substance, PGE2 in medium by EIA, duplicate, read-out: PGE2 production suppression rate at 10 μM, Suppression rate (%)

In order of falling inhibition at 10 µM:
1. CC(C(=O)O)c1ccc(/C=C2\CSCC2=O)cc1 (centres unmarked) [Example 23, 2-[4-(4-Oxothiolan-3-ylidenemethyl)phenyl]propionic Acid]  102%
2. C[C@H](C(=O)O)c1ccc(/C=C2\SCC[C@@H]2O)cc1 [Example 19-C, (2S,3′S)-2-{4-[3-Hydroxythiolan-(Z)-2-ylidenemethyl]phenyl}propionic Acid]  101%
3. CC(C(=O)O)c1ccc(/C=C2\SCCC2O)c(Cl)c1 (centres unmarked) [Example 65, 2-[3-Chloro-4-(3-hydroxythiolan-2-ylidenemethyl)phenyl]propionic Acid]  101%
4. CC(C(=O)O)c1ccc(/C=C2\CSCC2O)cc1 (centres unmarked) [Example 22, 2-[4-(4-Hydroxythiolan-3-ylidenemethyl)phenyl]propionic Acid]  99.7%
5. CC(C(=O)O)c1ccc(/C=C2\SCCC2O)cc1 (centres unmarked) [Example 18, 2-{4-[3-Hydroxythiolan-(Z)-2-ylidenemethyl]phenyl}propionic Acid]  99.5%
6. CC(C(=O)O)c1ccc(/C=C2\SCCC2=O)cc1 (centres unmarked) [Example 14, 2-{4-[3-Oxothiolan-(Z)-2-ylidenemethyl]phenyl}propionic Acid]  98.5%
7. O=C(O)Cc1ccc(/C=C2\SCCC2=O)cc1 [Example 29, 4-(3-Oxothiolan-2-ylidenemethyl)phenylacetic Acid]  96.8%
8. C[C@H](C(=O)O)c1ccc(/C=C2/C=CCS2)cc1 [Example 20, (2S)-2-[4-(2,5-Dihydrothien-(Z)-2-ylidenemethyl)phenyl]propionic Acid]  94.5%
9. CC(C(=O)O)c1ccc(/C=C2\SCCC2O)c(F)c1 (centres unmarked) [Example 61, 2-[3-Fluoro-4-(3-hydroxythiolan-2-ylidenemethyl)phenyl]propionic Acid]  92.8%
10. CC(C(=O)O)c1ccc(/C=C2\SCCC2O)c([N+](=O)[O-])c1 (centres unmarked) [Example 57, 2-[4-(3-Hydroxythiolan-2-ylidenemethyl)-3-nitrophenyl]propionic Acid]  91.6%
11. CC(C(=O)O)c1ccc(/C=C2/CCCS2)cc1 (centres unmarked) [Example 37, 2-[4-(Thiolan-2-ylidenemethyl)phenyl]propionic Acid]  89.7%
12. O=C(O)Cc1ccc(/C=C2\SCCC2O)cc1 (centres unmarked) [Example 31, 4-(3-Hydroxythiolan-2-ylidenemethyl)phenylacetic Acid]  85.9%
13. CC(C(=O)O)c1ccc(CC2SCCC2=O)cc1 (centres unmarked) [Example 26, 2-[4-(3-Oxothiolan-2-ylmethyl)phenyl]propionic Acid]  79.6%
14. CC(C(=O)O)c1ccc(/C=C2\SCCCC2=O)cc1 (centres unmarked) [Example 4, 2-[4-(3-Oxothian-2-ylidenemethyl)phenyl]propionic Acid]  77.8%
15. CC(C(=O)O)c1ccc(/C=C2\SCCC2(F)F)cc1 (centres unmarked) [Example 25, 2-[4-(3,3-Difluorothiolan-2-ylidenemethyl)phenyl]propionic Acid]  73.3%
16. COc1cc(/C=C2\SCCC2O)ccc1C(C)C(=O)O (centres unmarked) [Example 53, 2-[4-(3-Hydroxythiolan-2-ylidenemethyl)-2-methoxyphenyl]propionic Acid]  72.8%
17. CC(C(=O)O)c1ccc(CC2C=CSC2)cc1 (centres unmarked) [Example 10, 2-[4-(2,3-Dihydrothiophen-3-ylmethyl)phenyl]propionic Acid]  69.4%
18. CC(C(=O)O)c1ccc(/C=C2\SCCCC2O)cc1 (centres unmarked) [Example 5, 2-[4-(3-Hydroxythian-2-ylidenemethyl)phenyl]propionic Acid]  68.4%
19. CC(C(=O)O)c1ccc(CC2CSCC2=O)cc1 (centres unmarked) [Example 8, 2-[4-(4-Oxothiolan-3-ylmethyl)phenyl]propionic Acid]  66.4%
20. CC(C(O)=S)c1ccc(CC2CSCC2=O)cc1 (centres unmarked) [Example 11, 2-[4-(4-Oxothiolan-3-ylmethyl)phenyl]thiopropionic Acid]  49.2%
21. CC(C(=O)OC(C)(C)C)c1ccc(/C=C2\SCCC2=O)cc1 (centres unmarked) [Example 13, tert-Butyl 2-{4-[3-oxothiolan-(Z)-2-ylidenemethyl]phenyl}propionate]  48%
22. C[C@@H](C(=O)O)c1ccc(/C=C2\SCC[C@@H]2O)cc1 [Example 19-D, (2R,3′S)-2-{4-[3-Hydroxythiolan-(Z)-2-ylidenemethyl]phenyl}propionic Acid]  44.5%
23. CC(C(=O)O)c1ccc(/C=C2\CCSC2=O)cc1 (centres unmarked) [Example 35, 2-[4-(2-Oxothiolan-3-ylidenemethyl)phenyl]propionic Acid]  44%
24. CCOC(=O)C(C)c1ccc(/C=C2\SCCC2=O)cc1 (centres unmarked) [Example 15, Ethyl 2-{4-[3-oxothiolan-(Z)-2-ylidenemethyl]phenyl}propionate]  36.9%
25. CC(C(=O)O)c1ccc(CC2CSCC2O)cc1 (centres unmarked) [Example 9-A, 2-[4-(4-Hydroxythiolan-3-ylmethyl)phenyl]propionic Acid]  34.7%
26. CC(C(=O)O)c1cccc(/C=C2\SCCC2O)c1 (centres unmarked) [Example 69, 2-[3 (3-Hydroxythiolan-2-ylidenemethyl)phenyl]propionic Acid]  22.8%

System: CPA-induced rat pollakiuria model
Assay: Anti-pollakiuria effect in cyclophosphamide (CPA)-induced rat pollakiuria model
Format: in vivo
Conditions: oral administration, male SD rats, CPA 150 mg/kg i.p., urination frequency over 3 hours, probit method
Protocol: 1. Anti-Pollakiuria Effect in Cyclophosphamide (CPA)-Induced Rat Pollakiuria Model
To 7-week old male SD rats, 150 mg/kg of CPA was intraperitoneally administered, and the rats were starved for 24 hours, and then used for the test. Thirty minutes after the oral administration of the test substance, physiological saline (30 ml/kg) was orally administered, the rats were put into a metabolism cage for rats, and then frequency of urination was counted for 3 hours. For the counting of the frequency of urination, a weighing dish hung from an FD pickup was disposed at a urine outlet at the lower part of the metabolism cage, and frequency of urination was obtained based on change of urination volume obtained by a polygraph apparatus. To a control (treated with CPA) and an intact control (no treatment), the solvent was orally administered, and frequency of urination was counted in the same manner. Improvement rate of pollakiuria induced by the CPA treatment relative to the control was calculated in accordance with the following equation, and ED50 value was further calculated by the probit method based on the improvement rate at each dose. Improvement rate (%)=(Urination frequency of control−Urination frequency observed with test substance)/(Urination frequency of control−Urination frequency of intact control)×100

In order of falling ED50:
1. CC(C(=O)O)c1ccc(CC2CCCC2=O)cc1 (centres unmarked) [Loxoprofen-Na, reference compound]  1.8 mg/kg
2. C[C@H](C(=O)O)c1ccc(/C=C2\SCC[C@@H]2O)cc1 [Example 19-C, (2S,3′S)-2-{4-[3-Hydroxythiolan-(Z)-2-ylidenemethyl]phenyl}propionic Acid]  0.1 mg/kg

System: gastric mucosa
Assay: Gastric mucosa injury induction action by single oral administration in rats
Format: in vivo, rat
Conditions: starved male SD rats, stomach examined after 5 hours, probit method
Protocol: 2. Gastric Mucosa Injury Induction Action by Single Oral Administration in Rats
7-Week old male SD rats were starved for 24 hours, and then used for the test. Five hours after the oral administration of a test substance, the stomach was extracted, and incised along the greater curvature of stomach, and a stomach specimen was fixed in a neutrally buffered 1% formalin solution. The stomach specimen was observed under a stereoscopic microscope, and when specimen had four or more hemorrhagic sores or ulcers having a major axis of 0.5 mm or larger, the result was judged to be positive. […]

In order of rising “UD30 value (gastric mucosa injury)” value:
1. C[C@H](C(=O)O)c1ccc(/C=C2\SCC[C@@H]2O)cc1 [Example 19-C, (2S,3′S)-2-{4-[3-Hydroxythiolan-(Z)-2-ylidenemethyl]phenyl}propionic Acid]  13.8 mg/kg
2. CC(C(=O)O)c1ccc(CC2CCCC2=O)cc1 (centres unmarked) [Loxoprofen-Na, reference compound]  25.5 mg/kg

System: not listed separately
Assay: Safety factor (UD30 gastric mucosa injury / ED50 anti-pollakiuria)
Format: in vivo
Conditions: SD, rat, in vivo
Description: Safety factor was obtained in accordance with the following equation using the ED50 value and UD30 value obtained in the tests for the anti-pollakiuria effect in CPA-induced rat pollakiuria model and the gastric mucosa injury induction action by single oral administration in rats, respectively. Safety factor=UD30 value (mg/kg) for gastric mucosa injury induction action by single oral administration in rats/ED50 value (mg/kg) for anti-pollakiuria effect in CPA-induced rat pollakiuria model

`CC(C(=O)O)c1ccc(CC2CCCC2=O)cc1` (centres unmarked) [Loxoprofen-Na, reference compound] showed a Safety factor of 14.

Same assay, conditions: UD30 value (mg/kg) / ED50 value (mg/kg), rats

`C[C@H](C(=O)O)c1ccc(/C=C2\SCC[C@@H]2O)cc1` [Example 19-C, (2S,3′S)-2-{4-[3-Hydroxythiolan-(Z)-2-ylidenemethyl]phenyl}propionic Acid] showed a Safety factor of 138.
